Where two headings read alike, the source gives them in different places.
What was measured:
[1] = skin-PAMPA permeability assay; format: in vitro ADME; conditions: for Papp at 2 µg/mL: concentration 2 µg/mL; for Papp at 4 µg/mL: concentration 4 µg/mL
Experimental: The skin-PAMPA (parallel artificial membrane permeability assay) method was used, as described previously, to determine the permeability of the tested usnic acid enantiomers. The model consists of a two-chamber PAMPA sandwich, with 96 wells each. Before the experiment, the top plate, with the lipid-impregnated skin-mimetic membrane, was hydrated overnight with the hydration solution (200 µL per well). The tested substances were added at concentrations of 2 and 4 µg/mL. Each experiment was repeated at least three times, using six replicates on each plate, and the results were presented as mean ± SD. The amount of permeated active compounds was determined by spectroscopic analysis (Multiskan GO microplate reader, Thermo Scientific MaxQ 4450, Waltham, MA, USA), with a wavelength of 290 nm. For the calibration curve, stock solutions in the range of 12.5–150 µg/mL were prepared.
The apparent permeability coefficients (Papp) were calculated using the following equation:(1) Papp=−ln(1−CA/Cequilibrium)/S×(1/VD+1/VA)×t where VD = donor volume, VA = acceptor volume, Cequilibrium = equilibrium concentration, Cequilibrium=CD×VD+CA×VA/VD+VA , CD = donor concentration, CA = acceptor concentration, S = membrane area, and t = incubation time (in seconds). Compounds with Papp < 1 × 10^−6 cm/s are classified as having low permeability, and those with Papp > 1 × 10^−6 cm/s as highly permeable compounds.

fibroblasts = system: fibroblasts; parameters: method as in PMID 28095330; conditions: previous study; cited from earlier work
HDF cells = system: HDF cells; parameters: method as in PMID 31282672; conditions: cited from earlier work
[2] = Ultraviolet spectroscopy in ethanol solutions; format: physicochemical; conditions: ethanol solution; for E1.1 (λmax): extinction at 1 cm path length and 1% concentration; for ‹E1.1mean›: mean specific extinction 290 to 400 nm
Experimental: Spectra with a scan range of 250–400 nm were recorded in 30 µM ethanol solutions, in 1 cm path length, with 1.5 mL quartz cuvettes on a U-2800 double-beam spectrophotometer (Hitachi, Tokyo, Japan) controlled using UV Solution version 2.2 software. The molar extinction coefficient at maximum absorption (εmax) of the tested compounds was determined in ethanol as the slope of the linear regression of absorbance vs. the concentration of the tested compound (from 10 to 50 µM). The E1,1 coefficient was calculated using the formula: E1,1=ε[L/mol cm]× 10[g/L]/Mg/mol] × 1[cm] where ‹E1,1›mean value is a mean value of the specific extinction over the spectral range from 290 to 400 nm.

[3] = system: HaCaT human skin keratinocytes; test: LDH viability test, HaCaT keratinocytes; format: cell-based
Experimental: (§1) Normal human skin keratinocytes (HaCaT), melanocytes (HEM), and fibroblasts (HDF) were grown at 37 °C in a 5% CO2 atmosphere, with relative humidity, on high-glucose DMEM (HaCaT, HDF), or melanocyte growth medium (HEM), supplemented with 10% fetal bovine serum (FBS) and antibiotics. Before the experiment, cells were seeded onto 96-well plates (1.5 × 10^4 cells/well) for 24 h. Then, the culture medium was replaced with the same medium, containing 2–100 µg/mL of the tested substances, and incubated for 24, 48, or 72 h. LDH release was measured as described previously. Briefly, a proper quantity of a reagent mixture was added to the cell supernatants, and after 30 min the absorbance was measured at 490 nm (the reference wavelength 600 nm) with a BioTek Synergy microplate reader (BioTek Instruments Inc., Winooski, VT, USA). Cytotoxicity was calculated as follows: ((Asample − Acontrol)/(Ama − Acontrol)) × 100; where Asample = the absorbance value for the cells incubated with the tested substances., Acontrol = the absorbance value for untreated, control cells (spontaneous LDH release), and Amax = the absorbance value in Triton-X100-lysed cells (maximum LDH release).
(§2) Each experiment was performed in triplicate, and the results were presented as mean ± SD.

[4] = system: Human epidermal melanocytes (HEM); test: LDH viability test, HEM melanocytes; format: cell-based; conditions: Melanocyte, HEM melanocytes (remaining cell lines)
Experimental: as §1, §2

dermal fibroblasts (HDF) = test: LDH viability test, HDF fibroblasts; format: cell-based; conditions: Homo sapiens, Fibroblast, HDF fibroblasts (remaining cell lines)
Experimental: as §1, §2

[5] = parameters: method as in PMID 28704942; conditions: different test for the evaluation; cited from earlier work
HaCaT cells = conditions: cited from earlier work
human volunteers = system: human volunteers; parameters: method as in PMID 12468208; conditions: versus reference Nivea sun spray (SPF 5); cited from earlier work
[6] = parameters: method as in doi:10.1016/S1010-6030(98)00368-2; conditions: three-week exposure, 12 h/day natural sunlight + 12 h/day incubator with light source; cited from earlier work
irradiated guinea pigs = system: irradiated guinea pigs; parameters: method as in earlier work; conditions: cited from earlier work
HEM cells = system: HEM cells; parameters: method as in PMID 32092663; conditions: cited from earlier work
[7] = parameters: method as in PMID 24238180; conditions: cited from earlier work

CC(=O)C1=C(O)C=C2Oc3c(C(C)=O)c(O)c(C)c(O)c3[C@@]2(C)C1=O [(+)-usnic acid]
Papp at 2 µg/mL [1]: 7.53 ± 1.25 ×10⁻⁶ cm/s | Papp at 4 µg/mL [1]: 7.9 ± 0.65 ×10⁻⁶ cm/s | IC50 (fibroblasts): > 40 µg/mL | IC50 (HDF cells; conversion of > 10 µM): about 3.5 µg/mL | IC50 (HDF cells; read-out: IC50): > 10 µM | εmax [2]: 21 120 M^−1 cm^−1 | λmax [2]: 281 nm | E1.1 (λmax) [2]: 613 | ‹E1.1mean› [2]: 76

CC(=O)C1=C(O)C=C2Oc3c(C(C)=O)c(O)c(C)c(O)c3[C@]2(C)C1=O [(−)-usnic acid]
IC50 ([3]; 48 h): 80.8 µg/mL | IC50 ([3]; 72 h): 70.1 µg/mL | Papp at 2 µg/mL [1]: 7.46 ± 1.12 ×10⁻⁶ cm/s | Papp at 4 µg/mL [1]: 8.28 ± 1.33 ×10⁻⁶ cm/s | IC50 [4]: > 100 µg/mL | IC50 (dermal fibroblasts (HDF)): > 100 µg/mL

CCCCC(CC)COC(=O)C(C#N)=C(c1ccccc1)c1ccccc1 (centres unmarked) [octocrylene, 2-ethylhexyl 2-cyano-3,3-diphenylacrylate, reference compound]
εmax [2]: 13 650 M^−1 cm^−1 | λmax [2]: 302 nm | E1.1 (λmax) [2]: 378 | ‹E1.1mean› [2]: 141

CC(=O)c1c(O)c(C)c(O)c2c1OC1=CC(=O)C(C(C)=O)C(=O)C12C (centres unmarked) [usnic acid, 2,6-diacetyl-7,9-dihydroxy-8,9b-dimethyl-1,3(2H,9bH)-dibenzofurandione]
PF UVA [5]: 1.8 | SPF [5]: 3.9 | IC50 (HaCaT cells; conversion of the µM value): about 64 µg/mL | IC50 (HaCaT cells; read-out: IC50): 186 ± 4.8 µM | effectiveness in sun protection (human volunteers): comparable to a reference Nivea sun spray | stability of methanol solution exposed to light [6]: wholly degraded | SPF as compared to the reference (homosalate) (irradiated guinea pigs): two times higher | IC50 (HEM cells; conversion of the µM value): about 2.4 µg/mL | IC50 (HEM cells; read-out: IC50): 6.9 µM

dimethicodiethylbenzalmalonate
E1,1 value [7]: ~ 150

From article PMC8433837, “(+)-Usnic Acid as a Promising Candidate for a Safe and Stable Topical Photoprotective Agent” (Molecules, 2021)
